From patent publication US11000033B2, “Ketone or oxime compound, and herbicide” (NISSAN CHEMICAL CORPORATION, priority 2014, dated 2021)

What was measured:
Assay type in all cases: in vivo
Digitaria ciliaris = assay: Test Example 4: herbicidal effect by soil treatment (symbol F)
How it was run: (§1)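 Seeds were sown in sterilized diluvial soil, covered with about 1.5 cm of soil, and the soil surface was sprayed with a water-diluted emulsion of the compound at a predetermined rate. Plants grew in a greenhouse at 25° C. to 30° C.; effects were scored visually 3 weeks after application.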

Alopecurus myosuroides [1] = assay: Test Example 4: herbicidal effect by soil treatment (symbol J)
How it was run: as §1

wheat = assay: Test Example 5: effect on crop by foliage application, plastic box (symbol e); settings: 320 g/ha, 3 weeks after application
How it was run: (§2)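 Box culture: sterile diluvial soil, seeds spot-sown, ~1.5 cm cover, raised under glass at 25–30° C.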

corn [2] = assay: Test Example 4: effect on crop by soil treatment (symbol c); settings: for c: corn, effect on crop grade: application herbicide amount 320 g/ha
How it was run: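 Diluvial soil (sterilized) in boxes; seeds placed spot-wise alongside weed species; ~1.5 cm covering soil. Greenhouse, 25–30° C.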

Lolium multiflorum Lam. = assay: Test Example 5: herbicidal effect by foliage application, plastic box (symbol K); settings: 320 g/ha, 3 weeks after application
How it was run: (§3)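 Leaf-applied emulsion, water-diluted to a preset herbicide dose, on two-week-old seedlings raised in a 25° C. to 30° C. greenhouse; injury rated at 3 weeks using earlier criteria.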

transplanted rice plant = assay: Test Example 1: effect on crop, application before weed generation in submerged conditions (symbol a); settings: application herbicide amount 320 g/ha
How it was run: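 Rice at 2.5 leaf stage transplanted into submerged soil (4 cm depth) sown with three weed species; herbicide applied before weed emergence.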

corn [3] = assay: Test Example 5: effect on crop by foliage application, plastic box (symbol c); settings: 320 g/ha, 3 weeks after application
How it was run: as §2

Scirpus juncoides = assay: Test Example 2: herbicidal activity, application during weed generation in submerged conditions (symbol B); settings: Table 23; application herbicide amount 320 g/ha; grade 0-5 by criteria of Test Example 1
How it was run: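 Steps: fill pots with alluvial soil; add water to 4 cm depth; co-sow the three weeds; grow at 25° C. to 30° C. under glass; at 1–2 leaves, dose the floodwater with diluted emulsion; rate damage visually after 3 weeks.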

Alopecurus myosuroides [4] = assay: Test Example 5: herbicidal effect by foliage application, plastic box (symbol J); settings: 320 g/ha, 3 weeks after application
How it was run: as §3

Galium spurium = assay: Test Example 4: herbicidal effect by soil treatment (symbol Q)
How it was run: as §1

rapeseed = assay: Test Example 4: effect on crop by soil treatment (symbol g); settings: for g: rapeseed, effect on crop grade: application herbicide amount 320 g/ha
How it was run: (§4)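 Soil-treatment setup: crop and weed seeds were spot-sown into sterilized diluvial soil, then buried beneath approximately 1.5 cm of it, and the boxes were housed in a 25–30° C. greenhouse.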

beet = assay: Test Example 5: effect on crop by foliage application, plastic box (symbol f); settings: 320 g/ha, 3 weeks after application
How it was run: as §2

Veronica persica [5] = assay: Test Example 4: herbicidal effect by soil treatment (symbol R); settings: application herbicide amount 320 g/ha
How it was run: as §1

rice = assay: Test Example 4: effect on crop by soil treatment (symbol b); settings: for b: directly sowed rice plant, effect on crop grade: application herbicide amount 320 g/ha
How it was run: as §4

Veronica persica [6] = assay: Test Example 5: herbicidal effect by foliage application, plastic box (symbol R); settings: 320 g/ha, 3 weeks after application
How it was run: as §3

[7] = application herbicide amount 320 g/ha

| SMILES | F: Digitaria ciliaris, herbicidal effect grade (Digitaria ciliaris; [7]) | J: Alopecurus myosuroides, herbicidal effect grade (Alopecurus myosuroides [1]; [7]) | e: wheat, effect on crop grade (wheat) | c: corn, effect on crop grade (corn [2]) | K: Lolium multiflorum Lam., herbicidal effect grade (Lolium multiflorum Lam.) | Effect grade on crop, a: transplanted rice plant (transplanted rice plant) | c: corn, effect on crop grade (corn [3]) | Herbicidal effect grade, B: Scirpus juncoides (Scirpus juncoides) | J: Alopecurus myosuroides, herbicidal effect grade (Alopecurus myosuroides [4]) | Q: Galium spurium, herbicidal effect grade (Galium spurium; [7]) | g: rapeseed, effect on crop grade (rapeseed) | f: beet, effect on crop grade (beet) | R: Veronica persica, herbicidal effect grade (Veronica persica [5]) | b: directly sowed rice plant, effect on crop grade (rice) | R: Veronica persica, herbicidal effect grade (Veronica persica [6]) | other results |
| --- | --- | --- | --- | --- | --- | --- | --- | --- | --- | --- | --- | --- | --- | --- | --- | --- |
| CCOC(=O)C(C(=O)c1ccccc1)C1CC(O)=C(c2c(C)cc(C)cc2C)C1=O (stereo not drawn) [2-008] | 0 (Herbicidal ratio of 5% or lower (almost no effect)) | 0 (Herbicidal ratio of 5% or lower (almost no effect)) | 0 (Herbicidal ratio of 5% or lower (almost no effect)) | 0 (Herbicidal ratio of 5% or lower (almost no effect)) | 4 (Herbicidal ratio of 70% or higher and lower than 90%) | 0 (Herbicidal ratio of 5% or lower (almost no effect)) | 1 (Herbicidal ratio of 5% or higher and lower than 20%) | 0 (Herbicidal ratio of 5% or lower (almost no effect)) | 3 (Herbicidal ratio of 40% or higher and lower than 70%) | 0 (Herbicidal ratio of 5% or lower (almost no effect)) | 0 (Herbicidal ratio of 5% or lower (almost no effect)) | 0 (Herbicidal ratio of 5% or lower (almost no effect)) | 0 (Herbicidal ratio of 5% or lower (almost no effect)) | 0 (Herbicidal ratio of 5% or lower (almost no effect)) | – | – |
| CCc1cc(C#C[Si](C)(C)C)cc(C)c1C1=C(O)CC(CC(C)=NOC)C1=O (mixture of isomers) [6-008] | 5 (Herbicidal ratio of 90% or more (almost completely withered)) | 4 (Herbicidal ratio of 70% or higher and lower than 90%) | 4 (Herbicidal ratio of 70% or higher and lower than 90%) | 3 (Herbicidal ratio of 40% or higher and lower than 70%) | 3 (Herbicidal ratio of 40% or higher and lower than 70%) | 5 (Herbicidal ratio of 90% or more (almost completely withered)) | 3 (Herbicidal ratio of 40% or higher and lower than 70%) | 5 (Herbicidal ratio of 90% or more (almost completely withered)) | 5 (Herbicidal ratio of 90% or more (almost completely withered)) | 0 (Herbicidal ratio of 5% or lower (almost no effect)) | 0 (Herbicidal ratio of 5% or lower (almost no effect)) | 0 (Herbicidal ratio of 5% or lower (almost no effect)) | 0 (Herbicidal ratio of 5% or lower (almost no effect)) | 5 (Herbicidal ratio of 90% or more (almost completely withered)) | – | – |
| CON=C(C)CC1CC(OC(=O)c2ccccc2OC(F)(F)F)=C(c2c(C)cc(C)cc2C)C1=O (stereo not drawn) [1-155] | – | – | – | – | – | 5 (Herbicidal ratio of 90% or more (almost completely withered)) | – | 5 (Herbicidal ratio of 90% or more (almost completely withered)) | – | – | – | – | – | – | – | F: Digitaria ciliaris, herbicidal effect grade (Digitaria ciliaris; 320 g/ha): 5 (Herbicidal ratio of 90% or more (almost completely withered)); J: Alopecurus myosuroides, herbicidal effect grade (Alopecurus myosuroides [1]; 320 g/ha): 5 (Herbicidal ratio of 90% or more (almost completely withered)); e: wheat, effect on crop (criteria 0-5) (wheat): 5 (Herbicidal ratio of 90% or more (almost completely withered)); c: corn, effect grade on crop (corn [2]; 320 g/ha): 3 (Herbicidal ratio of 40% or higher and lower than 70%); K: Lolium multiflorum Lam., herbicidal effect (criteria 0-5) (Lolium multiflorum Lam.): 5 (Herbicidal ratio of 90% or more (almost completely withered)); R: Veronica persica, herbicidal effect (criteria 0-5) (Veronica persica [6]): 3 (Herbicidal ratio of 40% or higher and lower than 70%); c: corn, effect on crop (criteria 0-5) (corn [3]): 4 (Herbicidal ratio of 70% or higher and lower than 90%); J: Alopecurus myosuroides, herbicidal effect (criteria 0-5) (Alopecurus myosuroides [4]): 5 (Herbicidal ratio of 90% or more (almost completely withered)); Q: Galium spurium, herbicidal effect grade (Galium spurium; 320 g/ha): 0 (Herbicidal ratio of 5% or lower (almost no effect)); g: rapeseed, effect grade on crop (rapeseed; 320 g/ha): 4 (Herbicidal ratio of 70% or higher and lower than 90%); f: beet, effect on crop (criteria 0-5) (beet): 2 (Herbicidal ratio of 20% or higher and lower than 40%); b: directly sowed rice plant, effect grade on crop (rice; 320 g/ha): 5 (Herbicidal ratio of 90% or more (almost completely withered)) |
| CCOC(=O)C(C(=O)CC1CC1)C1CC(O)=C(c2c(C)cc(C)cc2C)C1=O (stereo not drawn) [2-025] | 4 (Herbicidal ratio of 70% or higher and lower than 90%) | 0 (Herbicidal ratio of 5% or lower (almost no effect)) | 0 (Herbicidal ratio of 5% or lower (almost no effect)) | 0 (Herbicidal ratio of 5% or lower (almost no effect)) | 5 (Herbicidal ratio of 90% or more (almost completely withered)) | 2 (Herbicidal ratio of 20% or higher and lower than 40%) | 1 (Herbicidal ratio of 5% or higher and lower than 20%) | – | 4 (Herbicidal ratio of 70% or higher and lower than 90%) | 0 (Herbicidal ratio of 5% or lower (almost no effect)) | 0 (Herbicidal ratio of 5% or lower (almost no effect)) | 0 (Herbicidal ratio of 5% or lower (almost no effect)) | 0 (Herbicidal ratio of 5% or lower (almost no effect)) | 5 (Herbicidal ratio of 90% or more (almost completely withered)) | 0 (Herbicidal ratio of 5% or lower (almost no effect)) | – |
| CON=C(C)CC1CC(O)=C(c2c(C)cc(-c3ccc(OC)cc3)cc2C)C1=O (mixture of isomers) [6-017] | 5 (Herbicidal ratio of 90% or more (almost completely withered)) | – | 1 (Herbicidal ratio of 5% or higher and lower than 20%) | 0 (Herbicidal ratio of 5% or lower (almost no effect)) | 5 (Herbicidal ratio of 90% or more (almost completely withered)) | 5 (Herbicidal ratio of 90% or more (almost completely withered)) | 5 (Herbicidal ratio of 90% or more (almost completely withered)) | 3 (Herbicidal ratio of 40% or higher and lower than 70%) | 5 (Herbicidal ratio of 90% or more (almost completely withered)) | 0 (Herbicidal ratio of 5% or lower (almost no effect)) | 0 (Herbicidal ratio of 5% or lower (almost no effect)) | 0 (Herbicidal ratio of 5% or lower (almost no effect)) | 0 (Herbicidal ratio of 5% or lower (almost no effect)) | 3 (Herbicidal ratio of 40% or higher and lower than 70%) | 3 (Herbicidal ratio of 40% or higher and lower than 70%) | – |
| CON=C(C)CC1CC(O)=C(c2c(C)cc(C(C)=O)cc2C)C1=O (stereo not drawn) [6-026] | 4 (Herbicidal ratio of 70% or higher and lower than 90%) | 1 (Herbicidal ratio of 5% or higher and lower than 20%) | 3 (Herbicidal ratio of 40% or higher and lower than 70%) | 0 (Herbicidal ratio of 5% or lower (almost no effect)) | 5 (Herbicidal ratio of 90% or more (almost completely withered)) | 3 (Herbicidal ratio of 40% or higher and lower than 70%) | 5 (Herbicidal ratio of 90% or more (almost completely withered)) | – | 5 (Herbicidal ratio of 90% or more (almost completely withered)) | 0 (Herbicidal ratio of 5% or lower (almost no effect)) | 0 (Herbicidal ratio of 5% or lower (almost no effect)) | 0 (Herbicidal ratio of 5% or lower (almost no effect)) | 0 (Herbicidal ratio of 5% or lower (almost no effect)) | 5 (Herbicidal ratio of 90% or more (almost completely withered)) | 1 (Herbicidal ratio of 5% or higher and lower than 20%) | – |
